Data as given in patent US20110136666A1, “CHEMICAL COMPOUNDS” (SYNGENTA CROP PROTECTION, INC., priority 2008, published 2011).

Key:
Format in all cases: in vivo
[1] = test system: Alopecurus myosuroides (ALOMY); experiment: Post-emergence biological efficacy, glasshouse pot test; settings: 312 h, after 13 days, 100=total damage, 0=no damage, read-out: Percentage damage caused to weed species ALOMY
Description: (§1) Seeds of Alopecurus myosuroides (ALOMY), Setaria faberi (SETFA), Echinochloa crus-galli (ECHCG), Solanum nigrum (SOLNI), Amaranthus retroflexus (AMARE) and Ipomea hederaceae (IPOHE) were sown in standard soil in pots. After cultivation for 8 days under controlled conditions in a glasshouse (at 24/16° C., day/night; 14 hours light; 65% humidity), the plants were sprayed with an aqueous spray solution derived from the formulation of the technical active ingredient in acetone/water (50:50) solution containing 0.5% Tween 20 (polyoxyethylene sorbitan monolaurate, CAS RN 9005-64-5) to give a final dose of 250 or 1000 g/ha of test compound.
(§2) The test plants were then grown on under controlled conditions in a glasshouse (at 24/16° C., day/night; 14 hours light; 65% humidity) and watered twice daily. After 13 days the test was evaluated (100=total damage to plant; 0=no damage to plant).

[2] = test system: Ipomea hederaceae (IPOHE); experiment: as above; settings: Ipomoea hederacea, 312 h, after 13 days, 100=total damage, 0=no damage, read-out: Percentage damage caused to weed species IPONE
Description: as §1, §2

[3] = test system: Setaria faberi (SETFA); experiment: as above; settings: 312 h, after 13 days, 100=total damage, 0=no damage, read-out: Percentage damage caused to weed species SETFA
Description: as §1, §2

[4] = test system: Echinochloa crus-galli (ECHCG); experiment: as above; settings: 312 h, after 13 days, 100=total damage, 0=no damage, read-out: Percentage damage caused to weed species ECHCG
Description: as §1, §2

[5] = test system: Amaranthus retroflexus (AMARE); experiment: as above; settings: 312 h, after 13 days, 100=total damage, 0=no damage, read-out: Percentage damage caused to weed species AMARE
Description: as §1, §2

[6] = test system: Solanum nigrum (SOLNI); experiment: as above; settings: 312 h, after 13 days, 100=total damage, 0=no damage, read-out: Percentage damage caused to weed species SOLNI
Description: as §1, §2

[7] = test system: Alopecurus myosuroides (ALOMY); experiment: Pre-emergence biological efficacy, glasshouse pot test; settings: 312 h, after 13 days, 100=total damage, 0=no damage, read-out: Percentage damage caused to weed species ALOMY
Description: as §1, with “one day” for “8 days”
(§3) The test plants were then grown under controlled conditions in the glasshouse (at 24/16° C., day/night; 14 hours light; 65% humidity) and watered twice daily. After 13 days the test was evaluated (100=total damage to plant; 0=no damage to plant).

[8] = test system: Ipomea hederaceae (IPOHE); experiment: as above; settings: Ipomoea hederacea, 312 h, after 13 days, 100=total damage, 0=no damage, read-out: Percentage damage caused to weed species IPOHE
Description: as §1, with “one day” for “8 days”
as §3

[9] = test system: Setaria faberi (SETFA); experiment: as above; settings: 312 h, after 13 days, 100=total damage, 0=no damage, read-out: Percentage damage caused to weed species SETFA
Description: as §1, with “one day” for “8 days”
as §3

[10] = test system: Echinochloa crus-galli (ECHCG); experiment: as above; settings: 312 h, after 13 days, 100=total damage, 0=no damage, read-out: Percentage damage caused to weed species ECHCG
Description: as §1, with “one day” for “8 days”
as §3

[11] = test system: Amaranthus retroflexus (AMARE); experiment: as above; settings: 312 h, after 13 days, 100=total damage, 0=no damage, read-out: Percentage damage caused to weed species AMARE
Description: as §1, with “one day” for “8 days”
as §3

[12] = test system: Solanum nigrum (SOLNI); experiment: as above; settings: 312 h, after 13 days, 100=total damage, 0=no damage, read-out: Percentage damage caused to weed species SOLNI
Description: as §1, with “one day” for “8 days”
as §3

Row | Compound | pest or weed control at 1000 g/ha [1] | pest or weed control at 1000 g/ha [2] | pest or weed control at 1000 g/ha [3] | pest or weed control at 1000 g/ha [4] | pest or weed control at 1000 g/ha [5] | pest or weed control at 1000 g/ha [6] | pest or weed control at 1000 g/ha [7] | pest or weed control at 1000 g/ha [8] | pest or weed control at 1000 g/ha [9] | pest or weed control at 1000 g/ha [10] | pest or weed control at 1000 g/ha [11] | pest or weed control at 1000 g/ha [12] | pest or weed control at 250 g/ha [1] | pest or weed control at 250 g/ha [2] | pest or weed control at 250 g/ha [3] | pest or weed control at 250 g/ha [4] | pest or weed control at 250 g/ha [5] | pest or weed control at 250 g/ha [6] | pest or weed control at 250 g/ha [7] | pest or weed control at 250 g/ha [8] | further results
1 | COC(=O)c1nc(-c2ccc(C)nc2F)nc(N)c1Cl [Compound 2-161, 4-Amino-5-chloro-2-(2-fluoro-6-methylpyridin-3-yl)-6-methoxycarbonyl pyrimidine] | 30% | 100% | 80% | 60% | 90% | 80% | 0% | 0% | 0% | 0% | 60% | 40% | – | – | – | – | – | – | – | – | –
2 | COC(=O)c1nc(-c2ccc(Cl)nc2)nc(N)c1Cl [Compound 2-156, 4-Amino-5-chloro-2-(2-chloropyridin-5-yl)-6-methoxycarbonyl pyrimidine] | 40% | 70% | 40% | 30% | 100% | 80% | 0% | 0% | 0% | 0% | 70% | 60% | – | – | – | – | – | – | – | – | –
3 | COC(=O)c1nc(-c2cccnc2F)nc(N)c1Cl [Compound 2-172, 4-Amino-5-chloro-2-(2-fluoropyridin-3-yl)-6-methoxycarbonyl pyrimidine] | – | – | – | – | – | – | – | – | – | – | – | – | 10% | 10% | 10% | 0% | 0% | 60% | 0% | 0% | pest or weed control at 250 g/ha [9]: 0%; pest or weed control at 250 g/ha [10]: 0%; pest or weed control at 250 g/ha [11]: 0%; pest or weed control at 250 g/ha [12]: 0%
4 | COC(=O)c1nc(-c2cccnc2)nc(N)c1Cl [Compound 2-153, 4-Amino-5-chloro-6-methoxycarbonyl-2-pyridin-3-ylpyrimidine] | 0% | 0% | 0% | 0% | 0% | 0% | 0% | 0% | 0% | 0% | 0% | 0% | – | – | – | – | – | – | – | – | –
5 | COC(=O)c1nc(-c2csc3ccccc23)nc(N)c1Cl [Compound 2-56, 4-Amino-2-(benzothiophen-3-yl)-5-chloro-6-methoxycarbonyl pyrimidine] | 20% | 20% | 10% | 40% | 100% | 40% | 0% | 0% | 0% | 0% | 60% | 0% | – | – | – | – | – | – | – | – | –
6 | COC(=O)c1nc(-c2cccnc2OCC(F)(F)F)nc(N)c1Cl [Compound 2-166, 4-Amino-5-chloro-6-methoxycarbonyl-2-(2-[2,2,2-trifluoroethoxy]-pyridin-3-yl)-pyrimidine] | – | – | – | – | – | – | – | – | – | – | – | – | 0% | 0% | 0% | 0% | 0% | 0% | 0% | 0% | pest or weed control at 250 g/ha [9]: 0%; pest or weed control at 250 g/ha [10]: 0%; pest or weed control at 250 g/ha [11]: 0%; pest or weed control at 250 g/ha [12]: 0%
7 | Nc1nc(-c2ccc(Cl)s2)nc(C(=O)O)c1Cl [Compound 1-2, 4-amino-5-chloro-2-(5-chlorothiophen-2-yl)-pyrimidine-6-carboxylic acid] | 10% | 60% | 50% | 20% | 100% | 80% | 0% | 0% | 0% | 0% | 100% | 30% | – | – | – | – | – | – | – | – | –
8 | COC(=O)c1nc(-c2cnc(OC)nc2)nc(N)c1Cl [Compound 2-182, 4-Amino-5-chloro-6-methoxycarbonyl-2-(2-methoxypyrimidin-5-yl)-pyrimidine] | 0% | 30% | 10% | 0% | 20% | 70% | 0% | 0% | 0% | 0% | 0% | 40% | – | – | – | – | – | – | – | – | –
9 | COC(=O)c1nc(-c2ncc3ccccn23)nc(N)c1Cl [Compound 2-146, 4-Amino-5-chloro-2-(imidazo[1,5-a]pyridin-3-yl)-6-methoxycarbonyl pyrimidine] | – | – | – | – | – | – | – | – | – | – | – | – | 0% | 40% | 0% | 0% | 30% | 30% | 0% | 0% | pest or weed control at 250 g/ha [9]: 0%; pest or weed control at 250 g/ha [10]: 0%; pest or weed control at 250 g/ha [11]: 0%; pest or weed control at 250 g/ha [12]: 0%
10 | COC(=O)c1nc(-c2csc3ccc(C)cc23)nc(N)c1Cl [Compound 2-57, 4-amino-5-chloro-6-methoxycarbonyl-2-(5-methylbenz-[b]thiophen-3-yl)-pyrimidine] | 0% | 20% | 0% | 0% | 0% | 0% | 0% | 0% | 0% | 0% | 0% | 0% | – | – | – | – | – | – | – | – | –
